Experimental data published in patent publication US20060105941A1, “Mixed antibiotic codrugs” (ALLERGAN, INC., priority 2004, published 2006).

Assays:
[1] = tested on: corneal ulcer; assay: Eye drop given to a patient with corneal ulcer; type: in vivo; settings: patient suffering from corneal ulcer, over a period of two weeks
Procedure: An eye drop containing compound 1 is administered to a patient suffering from corneal ulcer over a period of two weeks.

[2] = tested on: bacterial conjunctivitis; assay: Eye drop given to a patient with bacterial conjunctivitis; type: in vivo; settings: patient suffering from bacterial conjunctivitis, over a period of two weeks
Procedure: An eye drop containing compound 1 is administered to a patient suffering from bacterial conjunctivitis over a period of two weeks.

SMILES: COc1c(N2CCN[C@H](C)C2)c(F)cc2c(=O)c(C(=O)OC(C)C(=O)Oc3cccc4c3C(=O)C3=C(O)C5(O)C(=O)C(C(N)=O)=C(O)C(N(C)C)C5CC3C4(C)O)cn(C3CC3)c12 (stereo partly shown) [Compound 1]
- bacterial infection after the complete treatment [1]: eliminated
- symptoms after the complete treatment [1]: relief of symptoms is experienced
- bacterial infection after the complete treatment [2]: eliminated
- symptoms after the complete treatment [2]: relief of symptoms is experienced
